Measurements as given in patent US20110081405A1, “Zeolite Formulation And Use Thereof For The Prevention And Therapy Of Diseases Caused By Infections With Herpes Simplex Virus Type 1 And Type 2” (priority 2008, published 2011).

How the values were obtained:
HSV-2 (strain G) = test: Viral plaque inhibition assay, zeolite coincubated with HSV-2, supernatants added to cells; assay type: cell-based; conditions: keratinocytes, supernatants of HSV-2 coincubated 18 hours with 5 μg/ml zeolite or 50 μg/ml Acyclovir, Mordenite 0.1-0.5 μm, P, X, A 0.5-5 μm
Procedure: (§1) Testing of Antiviral Activities of Synthetic Zeolites by the Viral Plaque Inhibition Assay—the Antiviral Activity of Zeolites when Coincubated with HSV In Vitro
(§2) Epidermal cell cultures of fibroblasts and keratinocytes were grown in vitro from healthy skin samples, remnants from operations. Fibroblast cultures were grown in Dulbecco modified Eagle's medium (DMEM) containing Glutamax I (L-alanin-L-glutamine) and sodium pyruvate, […] and pyridoxine, supplemented with 10% fetal calf serum (FCS), 0.25 μg gentamycin and 100 UI/L penicillin. Keratinocytes are grown in a mixture of DMEM, Hams F12 in the 3:1 ratio with the addition of Glutamax I, complemented with 9% of FCS, epidermal growth factor (EGF), insulin, hydrocortisone, triiodothyronine, adenine, and antibiotics. The antiviral effect was determined on primary cells (primary fibroblasts and keratinocytes) grown in vitro from the explants of healthy skin, and also on cell lines: fibroblasts cell line MRC-5, HEp-2 cell line, and Vero cell line.
(§3) MRC-5, Vero, HEp-2, and keratinocyte cell lines were all obtained from the American Type Culture Collection-ATCC, and grown in T-75 flasks at 37° C. in a humidified incubator with 5% CO2.
(§4) HSV-1 (strain F) and HSV-2 (strain G), both obtained from the ATCC, were propagated in HEp-2 cells and their titres checked in same cells (H. Kirchner, C. Kleinicke, H. Northoff. J. Gen. Virol. 1977, 37, 647.). 0.1, 0.5, 1, 2, 4, or 5 Multiplicity of infection (MOI) of HSV-1 or HSV-2 was used to infect Vero cells, keratinocyte cell lines and MRC-5 cell lines, as described below.
(§5) Synthetic zeolites: A, Mordenite, P and X were tested in vitro for an anti HSV activity. Mordenite was used in two characteristic size of particles (0.1-0.5 μm and 0.5-5 μm) and other zeolites in 0.5-5 μm particle size. Zeolites were used in the concentrations of 5, 50, 500 ng/ml; 1, 5, 50, 100, 500 μg/ml; 1, 2, 10, 50 mg/ml in growth medium.
(§6) The ability of HSV preincubated with zeolite to infect cells permissive to infection (permissive cells) and cell lines was tested in in vitro experiments.
(§7) Viral stock containing the HSV-1 or HSV-2 (in MOI described above), diluted in a minimal volume of growth medium containing 5% FCS was used for the coincubation with zeolite for 3-20 hours at 4° C. The pH was maintained at all times to be at around 7.00. The sterile cuvettes containing zeolite+HSV were then centrifuged at 4.000 rpm/30 minutes to remove any particulate content in supernatants. Those supernatants (in 200 μl volume) were then added to the MRC-5, HEp-2, or Vero cell lines (grown in 24 well plate to 85% confluency) for 1 hour at 37° C. Parallel cultures contained cells infected with 200 μl of HSV-1 or HSV-2 under the same conditions as for the addition of supernatants (above). After one hour incubation, the growth medium containing 9% FCS was added, and cells cultivated for another 3 days (to examine for any CPE by light microscopy). Growth medium was then aspirated from the wells, and 100 μl of 0.2% crystal violet dye, diluted in phosphate buffered saline (PBS), was added to each well. After half-hour exposure to the dye, the wells were washed twice with double distilled water, air-dried, and the HSV plaques in cell cultures were counted using Olympus light microscope (magnification of 40×). The CPE produced by the infection of permissive cells was characterised by morphological changes in host cells e.g. cell rounding, swelling, detachment from the surface, formation of syncicia, plaques, caused by the increased number of newly formed viral particles. Plaques formed by HSV destroying cells were easily distinguished from unaffected cell layers.

HSV-1 (strain F) = test: Viral plaque inhibition assay, zeolite coincubated with HSV-1, supernatants added to cells; assay type: cell-based; conditions: keratinocytes, supernatants of HSV-1 coincubated 18 hours with 5 μg/ml zeolite or 50 μg/ml Acyclovir, Mordenite 0.1-0.5 μm, P, X, A 0.5-5 μm
Procedure: as §1, §2, §3, §4, §5, §6, §7

[1] = background statement; cited from earlier work

Structure (SMILES) | decrease in percentage of number of HSV-2 plaques (HSV-2 (strain G); 0.1 MOI) [%] | decrease in percentage of number of HSV-2 plaques (HSV-2 (strain G); 0.5 MOI) [%] | decrease in percentage of number of HSV-2 plaques (HSV-2 (strain G); 1 MOI) [%] | decrease in percentage of number of HSV-2 plaques (HSV-2 (strain G); 2 MOI) [%] | decrease in percentage of number of HSV-2 plaques (HSV-2 (strain G); 4 MOI) [%] | decrease in percentage of number of HSV-2 plaques (HSV-2 (strain G); 5 MOI) [%] | decrease in number of HSV-1 plaques (HSV-1 (strain F); 0.1 MOI) | decrease in number of HSV-1 plaques (HSV-1 (strain F); 0.5 MOI) | decrease in number of HSV-1 plaques (HSV-1 (strain F); 1 MOI) | decrease in number of HSV-1 plaques (HSV-1 (strain F); 2 MOI) | decrease in number of HSV-1 plaques (HSV-1 (strain F); 4 MOI) | decrease in number of HSV-1 plaques (HSV-1 (strain F); 5 MOI) | biavalibility of the drug [1] [%]
Nc1nc2c(ncn2COCCO)c(=O)[nH]1 [Acyclovir, 9-[(2-hydroxyetoxy)methyl]guanine] | 73 | 72 | 70 | 65 | 48 | 42 | 71 | 71 | 61 | 58 | 43 | 36 | 
CC(=O)OCC(CCn1cnc2cnc(N)nc21)COC(C)=O [famcyclovir] |  |  |  |  |  |  |  |  |  |  |  |  | 77
CC(C)[C@H](N)C(=O)OCCOCn1cnc2c(=O)[nH]c(N)nc21 [valacyclovir] |  |  |  |  |  |  |  |  |  |  |  |  | 55
